From US9393221B2, “Methods and compounds for reducing intracellular lipid storage” (THE GENERAL HOSPITAL CORPORATION, priority 2011, dated 2016)
Structures can show the parent of a compound that is named as a salt.

tested on: ATGL-KO iPSCs; assay: High throughput iPSC chemical screening, Oil Red O (ORO) lipid accumulation; format: cell-based, mouse; details: not given; as to Z-score: test concentration or dose not given here

Compound	Z-score
C[C@]12CC[C@@H](O)C[C@H]1CC[C@@H]1[C@@H]2CC[C@]2(C)C(=O)CC[C@@H]12 [3-alpha-Hydroxy-5-beta-androstan-17-one]	−0.187
CC(C)c1cccc(C(C)C)c1O [Propofol]	−0.9649

same assay, conditions: glycolytic switch compounds

Compound	Rank in normalized ORO score from screen
CN(C)c1nc(N(C)C)nc(N(C)C)n1 [Altretamine]	814

same assay, conditions: normalized ORO level vs DMSO-treated cells; compound present during 7 days differentiation, 96-well; negative = decrease in lipid accumulation

Compound	Z-score
O=C(/C=C/c1ccc(O)c(O)c1)O[C@@H]1C[C@](O)(C(=O)O)C[C@@H](O)[C@H]1O [Chlorogenic acid]	0.1486
CNCCC=C1c2ccccc2CCc2ccccc21 [Nortriptyline hydrochloride]	−1.28
NCc1ccccc1CC(=O)N[C@@H]1C(=O)N2C(C(=O)O)=C(CSc3nnnn3CC(=O)O)CS[C@H]12 [Ceforanide]	1.929
COc1ccc(C[C@H](N)C(=O)N[C@H]2[C@@H](O)[C@H](n3cnc4c(N(C)C)ncnc43)O[C@@H]2CO)cc1 [Puromycin dihydrochloride]	74.4112
Nc1ccc(/N=N/c2ccccc2)c(N)n1 [Phenazopyridine hydrochloride]	−0.2483
C[C@H]1NC(=O)NC1=O [Methylhydantoin-5-(D)]	−0.6204
COc1ccc(CCN(C)CCCC(C#N)(c2ccc(OC)c(OC)c2)C(C)C)cc1OC.Cl (stereo not shown) [Verapamyl hydrochloride]	0.4436
CN(C)c1nc(N(C)C)nc(N(C)C)n1 [Altretamine]	0.5601
Nc1ccc(S(=O)(=O)NC(=O)c2ccccc2)cc1 [Sulfabenzamide]	1.96
C/C=C1/C[N@+]2(C)CC[C@]34C(=C(C=O)[C@H]1C[C@@H]32)Nc1ccccc14.[Cl-] [Fluorocurarine chloride]	−1.1648
CC12CC3CC(C)(C1)CC(N)(C3)C2 [Memantine Hydrochloride]	−1.2487
c1ccc2c(c1)OCC(C1=NCCN1)O2 (stereo not shown) [Idazoxan hydrochloride]	−1.447
O=C1C[C@@H](c2ccc(O)cc2)Oc2cc(O)cc(O)c21 [Naringenine]	1.336
N[C@@H](Cc1ccc(O)c(O)c1)C(=O)O [Levodopa]	−0.1655
CCCCN(CCCC)CCCOC(=O)c1ccc(N)cc1 [Butacaine]	−0.9284
CO/N=C(\C(=O)N[C@@H]1C(=O)N2C(C(=O)O)=C(COC(N)=O)CS[C@H]12)c1ccco1 [Cefuroxime sodium salt]	0.8177
COC1=C[C@@H]2C3=C([C@@H]2C1=O)[C@@H](NC(C)=O)CCc1cc(OC)c(OC)c(OC)c13 [Lumicolchicine gamma]	0.6596
O=c1n(CCCN2CCN(c3cccc(Cl)c3)CC2)nc2ccccn12 [Trazodone hydrochloride]	0.03974
CCOC(=O)Nc1ccc2c(c1)N(C(=O)CCN1CCOCC1)c1ccccc1S2 [Moricizine hydrochloride]	−0.1525
CCOc1ccc(NC(C)=O)cc1 [Phenacetin]	0.5
COc1cc2c(cc1O)C[C@H]1c3c(cc(O)c(OC)c3-2)CCN1C [Boldine]	−0.6389
CC(COc1ccccc1)NC(C)C(O)c1ccc(O)cc1 (stereo not shown) [Isoxsuprine hydrochloride]	0.3014
CC(=O)O[C@]1(C(C)=O)CC[C@H]2[C@@H]3C=C(C)C4=CC(=O)CC[C@]4(C)[C@H]3CC[C@@]21C [Megestrol acetate]	1.362
CN(C)CCCN1c2ccccc2Sc2ccc(Cl)cc21 [Chlorpromazine hydrochloride]	−0.5417
COc1cc2c(cc1OC)C(C)NCC2.Cl (stereo not shown)	0.4756
CCCOc1cc(N)ccc1C(=O)OCCN(CC)CC [Propoxycaine hydrochloride]	−0.3049

Compound	Z-score
[H]/N=C(\N/C(=N/[H])Nc1ccc(Cl)cc1)NC(C)C [Proguanil hydrochloride]	16.0329
CCOC1O[C@H]([C@@H](COCc2ccccc2)OCc2ccccc2)[C@H](OCc2ccccc2)[C@H]1O (stereo partly shown) [Tribenoside]	−0.7171
Eburnamonine (−)	−1.0688
CC(=O)SCC(Cc1ccccc1)C(=O)NCC(=O)OCc1ccccc1 (stereo not shown) [Racecadotril]	0.516
CCCC(C(=O)OCCN(CC)CC)(c1ccccc1)c1ccccc1 [Proadifen hydrochloride]	−1.1876
CCCC(=O)Nc1ccc(OCC(O)CNC(C)C)c(C(C)=O)c1 (stereo not shown) [Acebutolol hydrochloride]	0.4578
CCn1cc(C(=O)O)c(=O)c2cc(F)c(N3CCNCC3)cc21 [Norfloxacin]	0.6666
C[C@]12CCC(=O)C=C1C=C[C@@H]1[C@@H]2CC[C@@]2(C)[C@H]1CC[C@@]2(O)CCC(=O)O [Canrenoic acid potassium salt]	−0.274
COCCOC(=O)C1=C(C)NC(C)=C(C(=O)OC(C)C)C1c1cccc([N+](=O)[O-])c1 (stereo not shown) [Nimodipine]	−1.6971
COc1cc(NC(C)CCCN)c2ncccc2c1 (stereo not shown) [Primaquine diphosphate]	5.51
C[C@H](CCC(=O)NCC(=O)O)[C@H]1CC[C@H]2[C@@H]3[C@H](O)C[C@@H]4C[C@H](O)CC[C@]4(C)[C@H]3C[C@H](O)[C@]12C [Glycocholic acid]	−0.6342
Cc1cccc(C)c1NC(=O)C(C)N (stereo not shown) [Tocainide hydrochloride]	0.6038
CSc1ccc2c(c1)N(CCC1CCCCN1C)c1ccccc1S2 (stereo not shown) [Thioridazine hydrochloride]	−1.1212
C[n+]1cc2c3c(ccc2c2ccc4cc5c(cc4c21)OCO5)OCO3 [Sanguinarine]	31.0936
CCCN1C[C@H](CSC)C[C@@H]2c3cccc4[nH]cc(c34)C[C@H]21 [Pergolide mesylate]	−0.3289
CN(C)CCC=C1c2ccccc2CCc2ccccc21.Cl [Amitryptiline hydrochloride]	0.6781
CC(=O)[N-]S(=O)(=O)c1ccc(N)cc1.O.[Na+] [Sulfacetamide sodic hydrate]	−0.3059
C=C(CC)C(=O)c1ccc(OCC(=O)O)c(Cl)c1Cl [Ethacrynic acid]	−0.302
Cc1onc(-c2ccccc2Cl)c1C(=O)N[C@@H]1C(=O)N2[C@@H]1SC(C)(C)[C@@H]2C(=O)O [Cloxacillin sodium salt]	−1.0101
COc1ccc(CCN2CCC(Nc3nc4ccccc4n3Cc3ccc(F)cc3)CC2)cc1 [Astemizole]	−0.7215
Isoetharine mesylate salt	−0.7902
CCCCN1CCCCC1C(=O)Nc1c(C)cccc1C (stereo not shown) [Bupivacaine hydrochloride]	0.0187
CCCCc1ccc(C(=O)O)nc1 [Fusaric acid]	−0.977
O=C(CCCN1CCC2(CC1)C(=O)NCN2c1ccccc1)c1ccc(F)cc1 [Spiperone]	−1.6819
CC(C)NCC(O)c1ccc2ccccc2c1 (stereo not shown) [Pronethalol hydrochloride]	−0.9002
C[C@@H]1C(=O)O[C@H]2C[C@@]34[C@H]5C[C@@H](C(C)(C)C)[C@]36[C@@H](OC(=O)[C@@H]6O)O[C@@]4(C(=O)O5)[C@]21O [Ginkgolide A]	−0.1024

Compound	Z-score
O=C(COc1ccc(Cl)cc1)N1CCN(Cc2ccc3c(c2)OCO3)CC1 [Fipexide hydrochloride]	−0.9747
Nc1nc2c(ncn2COCCO)c(=O)[nH]1 [Acyclovir]	−0.0091
CN1CCCCC1CCN1c2ccccc2Sc2ccc([S+](C)[O-])cc21 (stereo not shown) [Mesoridazine besylate]	−0.5525
N[C@@H](Cc1cc(I)c(Oc2ccc(O)c(I)c2)c(I)c1)C(=O)O [Liothyronine]	0.1954
CN(C)CCOC(c1ccccc1)c1ccccc1 [Diphenhydramine hydrochloride]	1.308
C#C[C@]1(O)CC[C@H]2[C@@H]3CCc4cc(OC)ccc4[C@H]3CC[C@@]21C [Ethynylestradiol 3-methyl ether]	−0.93
COc1ccc2cc1Oc1ccc(cc1)C[C@H]1c3cc(c(OC)cc3CCN1C)Oc1c(OC)c(OC)cc3c1[C@H](C2)N(C)CC3 [Tetrandrine]	−1.1905
NC(N)=NOCC[C@H](N)C(=O)O.O.O=S(=O)(O)O [Canavanine sulfate monohydrate (L,+)]	−0.5687
CN(C)CCC(c1ccc(Br)cc1)c1ccccn1 (stereo not shown) [Brompheniramine maleate]	1.885
C#CCN(C)Cc1ccccc1 [Pargyline hydrochloride]	−0.735
CO[C@@]1(NC(=O)C(C(=O)O)c2ccc(O)cc2)C(=O)N2C(C(=O)O)=C(CSc3nnnn3C)CO[C@@H]21 (stereo partly shown) [Moxalactam disodium salt]	−0.7608
CCS(=O)(=O)CCn1c([N+](=O)[O-])cnc1C [Tinidazole]	−0.3977
CC(=O)CC(c1ccc([N+](=O)[O-])cc1)c1c(O)c2ccccc2oc1=O (stereo not shown) [Acenocoumarol]	−1.4804
C[N+]1(C)CCC[C@H]1C(=O)[O-].Cl [Stachydrine hydrochloride]	0.2248
CCC1=C(C)CN(C(=O)NCCc2ccc(S(=O)(=O)NC(=O)N[C@H]3CC[C@H](C)CC3)cc2)C1=O [Glimepiride]	0.1043
Cc1cc(C2CCCCC2)n(O)c(=O)c1.NCCO [Ciclopirox ethanolamine]	40.334
O=C(O)COCCN1CCN(C(c2ccccc2)c2ccc(Cl)cc2)CC1 (stereo not shown) [Cetirizine dihydrochloride]	−0.3764
COc1cnc(NS(=O)(=O)c2ccc(N)cc2)nc1 [Sulfameter]	−0.1501
CNC1(C)C2CCC(C2)C1(C)C (stereo not shown) [Mecamylamine hydrochloride]	2.563
CNC(C)CCC=C(C)C.CNC(C)CCC=C(C)C.O=C(O)[C@@H](O)[C@H](O)[C@H](O)[C@@H](O)C(=O)O [Isometheptene mucate]	0.6197
CC(=O)c1ccc(S(=O)(=O)NC(=O)NC2CCCCC2)cc1 [Acetohexamide]	0.3584
Nc1cc(-c2ccncc2)c[nH]c1=O [Amrinone]	1.535
O=C(NCNC(=O)NC1C(=O)NC(=O)N1CO)NC1C(=O)NC(=O)N1CO (stereo not shown) [Imidurea]	0.2567
CC(C)(Sc1cc(C(C)(C)C)c(O)c(C(C)(C)C)c1)Sc1cc(C(C)(C)C)c(O)c(C(C)(C)C)c1 [Probucol]	1.626
